Data published in patent publication US20180177749A1, “USE OF CYP EXPRESSION TO DIRECT THERAPEUTIC INTERVENTION IN CANCER” (REGENTS OF THE UNIVERSITY OF MINNESOTA, priority 2016, published 2018).
Entries after “also recorded” stand apart in the source; their conditions may differ. Read-outs that look alike come from different tables or passages of the source. One block for each compound: values may come before it.

Experiments:
MCF-7 cells [1] = assay: Western blot of signaling proteins, MCF-7; format: cell-based, human
Description: (§1) RIPA extracts of cells were prepared as described previously, in the presence of protease inhibitors and phosphatase inhibitors. Protein concentrations were determined by the micro-bicinchoninic acid (BCA) method, and 30 μg of protein was used for each lane of the SDS-polyacrylamide gel Western blot. Relative protein expression was estimated using GAPDH or β-actin as an internal standard.

MCF-7 cells [2] = assay: RPPA analysis of MCF-7 cells treated with (±)-14,15-EET; format: cell-based, human; settings: 15 minutes
Source text: It is proposed that HBB inhibition of ER+ tumor growth is due, in part, to direct inhibition of membrane associated non-mitochondrial CYP3A4, thereby suppressing Stat3 and mTOR signaling due to suppression of EET biosynthesis, resulting in AMPK activation (FIG. 6d, membrane diagram). […] In this model, EETs inhibit AMPK through unknown mechanisms. […] This model therefore proposes two sites of CYP3A4 activity, at cellular membranes and at mitochondria.

MCF-7 cells [3] = assay: JC-1 mitochondrial membrane potential staining, MCF-7; format: cell-based, human; settings: HBB 20 μM 4 hours, (±)-14,15-EET 1 μM
Description: (§2) Cells were grown in chamber slides at 37° C. with 5% CO2 and treated with DMSO or HBB for 4 hours before JC-1 dye was added for the MCF-7 or MDA-MB-231 cell line. […] Images of red fluorescence (590 nm) and green fluorescence (530 nm) were acquired using an Olympus 1X70 microscope fitted with an Olympus DP70 digital camera (Olympus, Tokyo, Japan).

MDA-MB-231 cells = assay: JC-1 mitochondrial membrane potential staining, MDA-MB-231; format: cell-based, human; settings: HBB 20 μM 4 hours, (±)-14,15-EET 1 μM
Description: as §2

MDA-MB-231 cell line = assay: Western blot of AMPK phosphorylation, MDA-MB-231; format: cell-based, human; settings: 1.0 μM, 24 hours
Description: as §1

MCF-7 = assay: MTT cell proliferation assay, MCF-7; format: cell-based; settings: Homo sapiens, MCF7
Description: Cells were grown at 37° C. in a 5% CO2 incubator. […] MTT was then added (5 mg/ml), and after 2 h of incubation, the plates were centrifuged. The supernatant was removed; DMSO was added, and the absorbance was read at 540 nm with a BioTek 96-well plate reader.

[4] = system: cytochrome P450 reductase (CPR); assay: CPR-mediated reduction of cytochrome c; format: biochemical; settings: 1 and 10 mM
Description: In a quartz cuvette, reduction of cytochrome c reaction was initiated by addition of CPR (final concentration 0.2 mg/mL) to 1 mL potassium phosphate buffer (0.3 M, pH=8.3) containing cytochrome c ([…]) and NADPH 50 ([…]). Absorbance at 550 nm was monitored real time by a Cary 50 UV-Vis Spectrophotometer (Agilent, Santa Clara, Calif.).

MCF-7 cells [5] = assay: Cellular ATP by luminescent assay; format: cell-based, human; settings: 6 hours of treatment; metformin 5 mM
Description: Cells were seeded in 96-well tissue culture plate in 100 μL medium per well. After treatment with either vehicle or testing compound for an appropriate length of time, 50 μL mammalian cell lysis solution was added to each well and the plate was shaken for 5 minutes on an orbital shaker. To each well, 50 μL luminescent substrate and luciferase solution were then added. After incubation in the dark for 10 minutes, the luminescence measured. Cellular ATP levels were then calculated against a standard curve generated with ATP standards of known concentration.

CYP2C8 = target: T1, CYP2C8 (Homo sapiens, UniProt P10632); assay: Binding to CYP nanodiscs (CYP2C8)
T1 sequence (P10632 1-490): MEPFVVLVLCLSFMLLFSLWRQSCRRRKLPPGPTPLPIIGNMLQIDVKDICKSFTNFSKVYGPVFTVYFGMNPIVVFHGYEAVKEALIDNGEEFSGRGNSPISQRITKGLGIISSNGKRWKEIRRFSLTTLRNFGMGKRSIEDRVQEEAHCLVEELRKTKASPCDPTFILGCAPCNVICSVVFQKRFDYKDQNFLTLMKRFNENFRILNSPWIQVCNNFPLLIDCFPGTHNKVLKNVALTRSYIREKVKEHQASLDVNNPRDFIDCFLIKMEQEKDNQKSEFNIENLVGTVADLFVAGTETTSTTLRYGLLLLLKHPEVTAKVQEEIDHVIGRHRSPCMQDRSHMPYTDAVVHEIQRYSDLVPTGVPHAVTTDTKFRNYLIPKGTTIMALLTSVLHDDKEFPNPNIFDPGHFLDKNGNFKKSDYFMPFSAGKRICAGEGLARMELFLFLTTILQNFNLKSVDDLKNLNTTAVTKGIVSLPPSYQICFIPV

CYP2J2 [6] = target: T2, CYP2J2 (Homo sapiens, UniProt P51589); assay: Binding to CYP nanodiscs (CYP2J2)
T2 sequence (P51589 1-502): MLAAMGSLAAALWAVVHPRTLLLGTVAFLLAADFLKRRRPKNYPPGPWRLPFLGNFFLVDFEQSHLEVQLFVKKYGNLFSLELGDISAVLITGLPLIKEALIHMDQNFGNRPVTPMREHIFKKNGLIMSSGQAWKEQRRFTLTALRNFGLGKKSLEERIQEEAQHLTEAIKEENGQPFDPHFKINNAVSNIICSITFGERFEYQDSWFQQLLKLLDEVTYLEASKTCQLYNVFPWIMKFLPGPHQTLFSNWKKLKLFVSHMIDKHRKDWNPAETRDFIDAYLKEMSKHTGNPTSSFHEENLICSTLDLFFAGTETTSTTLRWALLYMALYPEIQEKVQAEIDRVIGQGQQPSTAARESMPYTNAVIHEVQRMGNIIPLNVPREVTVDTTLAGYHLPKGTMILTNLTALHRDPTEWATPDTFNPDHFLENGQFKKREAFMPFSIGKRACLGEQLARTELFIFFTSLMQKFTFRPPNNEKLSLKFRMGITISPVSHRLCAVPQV

MCF-7 cells [7] = assay: Measurement of OCR and ECAR (extracellular flux), MCF-7; format: cell-based, human; settings: t-AUCB 2.5, 5 μM, metformin 2.5, 5 mM, HBB 20, 40 μM, rotenone 1 μM
Description: Cells were maintained in growth medium consisting of 10% FBS at 37° C. with 5% CO2 and seeded at 100,000 cells per well in XF24-well cell culture microplates (Seahorse Bioscience, North Billirica, Mass.). Concentrated stocks of HBB were prepared in DMSO. HBB was diluted to 10× working concentration in XF assay medium (a non-buffered medium including 2 mM L-glutamine but no sodium bicarbonate (buffering agent), glucose, or sodium pyruvate). Assays were performed in the XF Extracellular Flux Analyzer (Seahorse Bioscience that measures uptake and excretion of metabolic end products in real time). Oxygen consumption rate (OCR) and extracellular acidification rate (ECAR) were measured using an XF Assay Kit. OCR is reported in pmoles/minute and ECAR in mpH/minute. Before analysis, the cells were switched from culture medium to XF assay medium. After baseline measurements, 75 μl of HBB prepared in assay medium was injected into each well to reach final working concentrations. After addition of HBB, OCR and ECAR were measured at 18-minute intervals. […] There were 6 replicates for the studies of the 3-18 and 4-14 cell lines.

CYP2J2 [8] = target: T2, CYP2J2; assay: CYP2J2 epoxygenase activity; settings: 0.75, 1.5 or 3 mM
MCF-7 cells [9] = assay: Cellular EET levels by LC-ESI/MS/MS; format: cell-based, human; settings: metformin 5 mM, 6 hours
Description: Samples were submitted to liquid chromatography-electrospray ionization/multiple reaction monitoring/mass spectrometry (LC-ESI/MRM/MS) analysis in a Thermo Electron Quantum Discovery Max triple quadrupole mass spectrometer (Thermo Finnigan, San Jose, Calif.) coupled with an Agilent 1100 HPLC (Santa Clara, Calif.), using argon as the collision gas. Negative ion monitoring was performed at the following diagnostic product ions: 319 m/z→155 m/z for 8,9-EET; 319 m/z→179 m/z for 11,12-EET; 319 m/z→219 m/z for 14,15-EET; 339 m/z→163 m/z for 8,9-[13C20]EET; 339 m/z→233 m/z for 11,12-[13C20]EET; and 339 m/z→259 m/z for 14,15-[^13C20]EET. Base-line resolution of EET regioisomers was achieved on a Phenomenex Luna C18 (2) reverse phase capillary column (250×0.5 mm, 5-μm particles) using the following mobile phase combinations: isocratic 5% B for 5 min, gradient 5-70% B for 5 min, hold at 70% for 30 min and then 95% for 10 min; A: 0.01% acetic acid in water, B: 0.01% acetic acid in acetonitrile; […] flow rate. A standard curve was obtained by linear regression of the peak area ratio of authentic EET regioisomers against internal standards. The amount of EETs in samples was calculated according to the standard curve. The (±)-5,6-EET regioisomer was not measured because it undergoes rapid internal degradation. […]

MCF-7 xenograft = settings: 100-fold higher dosing than HBB (Ma et al.); cited from earlier work
MCF-7 cells [10] = assay: Clonogenicity of MCF-7 cells; format: cell-based, human; settings: 1 mM, 24 hours treatment, 2 weeks culture
Description: FIG. 9A. […] After 24 hours of culture, the medium was then removed followed by addition of CM to the plates (left panel). The plates were then cultured for 2 weeks and at the endpoint the cell colonies were stained with crystal violet and the colonies counted. […] FIG. 9B.

[11] = read-out: IC50, MCF-7 breast cancer cell line

SMILES: CCCCCC1OC1C/C=C\C/C=C\C/C=C\CCCC(=O)O (racemic) [(±)-14,15-EET, (±)-14,15-(5Z,8Z,11Z)-EET]
AMPK phosphorylation (pAMPK) (MCF-7 cells [1]; 1 μM, 24 hours, MCF-7): suppression of pAMPKc
Stat3 phosphorylation on Y705 and S727 (MCF-7 cells [2]): activated
total mTOR level (MCF-7 cells [2]): increased
mitochondrial membrane potential (ΔΨm), JC-1 (MCF-7 cells [3]): increased mitochondrial cross membrane potential
mitochondrial membrane potential (ΔΨm), JC-1 (MDA-MB-231 cells): increased mitochondrial membrane potential
AMPK phosphorylation (MDA-MB-231 cell line): no effect on AMPK phosphorylation

IC50 (MCF-7; [11]): ~500 µM
IC50 (MCF-7; read-out: IC50 MCF-7): 500 µM
SMILES: CCCCCCNC(=N)NC(=N)NCc1ncc[nH]1 [HIB, N1-hexyl-N5-[(1H-imidazol-2-yl)methyl]-biguanide]

IC50 (MCF-7; [11]): 40 µM
IC50 (MCF-7; read-out: IC50 MCF-7): 40 µM
SMILES: CCCCCCNC(=N)NC(=N)NCc1ccncc1 [HPB, N1-hexyl-N5-(pyridin-4-ylmethyl) biguanide]

IC50 (MCF-7; read-out: IC50 MCF-7): > 10000 µM
SMILES: CCCCNC(=N)N=C(N)N [buformin, reference compound]

SMILES: CN(C)C(=N)N=C(N)N [metformin]
CPR-mediated reduction of cytochrome c [4]: not affected
CPR-mediated reduction of cytochrome c ([4]; listed as Metformin): failed to inhibit
CYP3A4 protein levels (MCF-7 cells [1]; 1 mM, 48 hours): did not affect; also recorded: did not change CYP3A4 protein levels
onset of AMPK activation (phosphorylation) (MCF-7 cells [1]; HBB 20 μM, metformin 5 mM): first detectable after 6 hours
total cellular ATP levels (MCF-7 cells [5]): unchanged; also recorded: failed to deplete cellular ATP
binding to CYP2C8 (CYP2C8): binds
binding to CYP2J2 (CYP2J2 [6]): binds
IC50 (MCF-7; read-out: IC50 MCF-7): 5000 µM
extracellular acidification rate (ECAR) (MCF-7 cells [7]): marginal
oxygen consumption rate (OCR) (MCF-7 cells [7]): marginal reduction of OCR
inhibition of CYP2J2 epoxygenase activity (CYP2J2 [8]): not inhibited
cellular EET levels (MCF-7 cells [9]): reduced
activity on the MCF-7 xenograft (MCF-7 xenograft): little activity
clonogenicity (MCF-7 cells [10]): Inhibits Clonogenicity

IC50 (MCF-7; read-out: IC50 MCF-7): 7000 µM
SMILES: N=C(N)/N=C(\N)NCCc1ccccc1 [phenformin, reference compound]

SMILES: C=C(C)[C@H]1Cc2c(ccc3c2O[C@@H]2COc4cc(OC)c(OC)cc4[C@@H]2C3=O)O1 [rotenone]
extracellular acidification rate (ECAR) (MCF-7 cells [7]): Reduction of OCR and ECAR was highly significant
oxygen consumption rate (OCR) (MCF-7 cells [7]): Reduction of OCR and ECAR was highly significant
